PMC11310113, “Development of a UPLC-MS/MS method for quantifying KPT-335 (Verdinexor) in feline plasma for a study of PK” (Frontiers in Veterinary Science, 2024)
Where two headings read alike, the source gives them in different places.

What was measured:
[1] = Pharmacokinetic study of KPT-335 capsules in cats, single oral dose; type: in vivo, cat
Protocol: The recommended dose of KPT-335 for dogs is 1.5 mg/kg body weight (BW). To calculate the dose for cats, the average weight of the tested cats was substituted in the equation used for dogs, and the recommended dose was 2 mg/kg BW through body surface area (BSA) conversion ([20]). The formula was as follows: […]
where K is a constant determined for different animal species, such as a dog (11.0) and cat (8.7), and W is the BW (kg) of the animal. Km is approximated by the individual animal species taking the ratio between the mean weight (kg) and BSA (m^2), this value can be calculated using Formula 1. The average weight of the six tested cats was used in BW parameters, the dosage was calculated by Formula 2, and KPT-335 was weighed into capsules and administered to the animals. The cats were fasted for 12 h before and 2 h following drug administration. Potential adverse effects were monitored during the study. The capsules were administered orally as a single bolus to the back of the tongue via a dosing syringe, accompanied by 3–5 mL of water.
Samples of blood (1 mL) were collected from the brachial cephalic vein at 0.167, 0.333, 0.5, 0.75, 1, 1.5, 2, 4, 6, 8, 12, 24, 36, and 48 h pre- and post-oral dosing into an anticoagulant blood collection tube containig heparin sodium. Blood samples were centrifuged for 8 min at 1800 × g. The plasma layer was taken and divided evenly into two. The plasma samples were stored at −20°C until analysis (within 20 days of collection). For the pharmacokinetic parameters, the blood drug concentration-time data was analyzed by using WinNonlin software (version 8.1, United States). The elimination half-life (T1/2), the maximum plasma concentration of KPT-335 (Cmax), the time when the plasma concentration reached a maximum (Tmax), and the area under the concentration-time curve (AUC) were determined.

[2] = Stability of KPT-335 in cat plasma samples (UPLC-MS/MS); type: in vitro ADME; conditions: for recovery at 8 h: cat
Protocol: KPT-335 working solution was added to blank plasma, LQC, MQC, and HQC samples to investigate the room-temperature stability for 2 h, freeze–thaw stability with three times, autosampler stability for 24 h, and long-term stability of 20 days at −20°C. The stability of the stock solution for 20 days was also investigated.
Given that plasma is mostly neutral or alkaline, to optimize the stability of KPT-335 at room temperature and ensure the desirable result of the sample during the detection process, we carried out further experiments. There were four groups in the experiment. The first group was the normal preparation of the sample, and the second, third, and fourth groups were samples containing 0.01, 0.05, or 0.1% formic acid, respectively. All the samples were placed at room temperature for 12 h and then processed at the same time for detection.

[3] = design: method as in PMID 24503695; conditions: healthy beagle dogs (n = 6), single dose 1.5 mg/kg BW p.o. after meals; cited from earlier work
[4] = design: method as in PMID 30143046; conditions: day 14, cited from earlier work; for AUClast (AUC) / HL_Lambda_z / Tmax: dog (n = 4)
[5] = cat (n = 6), 2 mg/kg BW p.o., single dose, fasted
[6] = plasma, cats, single oral dose of capsules 2 mg/kg BW
[7] = average of all dogs (1.5 and 1.25 mg/kg BW)

AUC_%Extrap_obs [1, 5]: 11.32 ± 6.56%
HL_Lambda_z [1, 5]: 5.16 ± 2.30 h
MRT last ([1]; plasma, po, cat (n = 6), 2 mg/kg BW p.o., single dose, fasted): 5.46 ± 2.14 h
k el ([1]; plasma, po, cat (n = 6), 2 mg/kg BW p.o., single dose, fasted, read-out: Lambda_z (converted)): 4.17e-05 s⁻¹
AUC(0-inf) [1, 6]: 1590 ± 1000 ng·h/mL
AUC(0-t) [1, 6]: 1440 ± 965 ng·h/mL
Cmax [1, 6]: 240 ± 191 ng/mL
Tmax [1, 6]: 1.46 ± 0.51 h
half-life [1, 6]: 5.16 ± 2.3 h
room temperature stability accuracy ([2]; acidic plasma (formic acid added), room temperature, 12 h): still acceptable
recovery at 8 h ([2]; plasma, 4°C, read-out: sample recovery): > 80%
recovery at 8 h ([2]; plasma, 8 h at room temperature, read-out: sample recovery rate): 59 to 67.5%
recovery at 8 h ([2]; plasma, light-protected, read-out: recovery rate of light-protected samples): 60.4 to 63.2%
accuracy of stable samples at room temperature ([2]; plasma containing 0.1% formic acid, room temperature, 12 h): more than 85%
room temperature stability accuracy ([2]; plasma, room temperature, 2 h, all concentrations): met the requirement of ±15%
room temperature stability accuracy ([2]; plasma, room temperature, 8 h): did not meet the requirement of ±15%
room temperature stability result ([2]; plasma, room temperature, 24 h): not within the requirement of ±15%
Structure (SMILES): O=C(/C=C\n1cnc(-c2cc(C(F)(F)F)cc(C(F)(F)F)c2)n1)NNc1ccccn1 [KPT-335]
AUCINF_obs [3]: 1810 ± 216 ng·h/mL
AUClast (AUC0-t) [3]: 1760 ± 223 ng·h/mL
Cmax [3]: 253 ± 88.3 ng/mL
HL_Lambda_z (T1/2) [3]: 3.88 ± 1.47 h
Tmax [3]: 3.83 ± 2.71 h
average T1/2 [4, 7]: 5 h
average Tmax [4, 7]: 5.3 h
AUClast (AUC) ([4]; 1.25 mg/kg BW p.o.): 1576.5 ng·h/mL
HL_Lambda_z ([4]; 1.25 mg/kg BW p.o.): 5 h
Tmax ([4]; 1.25 mg/kg BW p.o.): 5.3 h
AUClast (AUC) ([4]; 1.5 mg/kg BW p.o.): 2346.8 ng·h/mL
HL_Lambda_z ([4]; 1.5 mg/kg BW p.o.): 5 h
Tmax ([4]; 1.5 mg/kg BW p.o.): 5.3 h
